Results taken from patent publication US20020156112A1, “Endostatin-like angiogenesis inhibition” (priority 2000, published 2002).

Key:
Type in all cases: binding
[1] = Biotin-streptavidin interaction, control colloids (Example 1); conditions: same streptavidin concentrations; wells B1-B7
Method: (§1) Gold colloids were prepared using a mixture of 10 μM biotin thiol, 10 μM NTA thiol, and 580 μM C11 thiol. Control colloids were prepared using 20 μM NTA thiol and 580 μM C11 thiol for a total thiol concentration of 600 μM. After deposition, the colloids were heat cycled in 400 μM EG3 thiol, and charged with nickel sulfate. A streptavidin stock solution (1 mg/mL) was prepared in 10 mM sodium phosphate buffer, 100 mM sodium chloride, pH 7.4 (buffer) To detect the biotin-streptavidin interaction, 60 μL buffer, 10 μL streptavidin, and 30 μL colloids, were mixed in a well of a 96-well plate. The plate was incubated at room temperature and observed for color change. At the three highest concentrations of streptavidin (0.1 mg/mL, 0.01 mg/mL, 0.001 mg/mL) the colloids presenting biotin turned blue (wells A1, A2, A3, FIG. 5). At lower concentrations of streptavidin, the wells containing biotin colloids remained pink (wells A4, A5, A6, A7). A similar experiment was performed using colloids presenting only the NTA group (wells B1-B7).
(§2) FIG. 5 is a digital photo of a colorimetric nanoparticle experiment in which gold colloids were derivatized with either biotin-SAMs (top row) or NTA-Ni-SAMs (bottom row). Streptavidin which has four binding sites for biotin, and thus will cross-link biotin-presenting colloids, was added free in solution. […]

[2] = Biotin-streptavidin interaction with gold colloids (Example 1)
Method: as §1, §2

[3] = system: RGD-endostatin interaction; assay: Colloid colour-change drug screen for endostatin mimics via RGD/endostatin interaction (Example 8); conditions: 5 μL candidate drug at 2.9 mg/ml in DMSO; 4.75 ul of 0.1 mg/mL endostatin; room temperature, about 20 minutes
Method: In yet another aspect of the invention, a high throughput drug screening assay is described that identifies endostatin mimics is described. Histidine-tagged peptides containing two tandem GRGDS motifs are immobilized, from a phosphate buffered saline solution, onto gold nanoparticles (called colloids) that have been derivatized with NTA-Ni-SAMs that capture histidine-tagged species. Endostatin, which is a dimer in its functional form, is added to the colloidal solution. Dimeric endostatin presents two binding sites that recognize GRGDS motif peptides. The binding of dimeric endostatin to two peptides attached to two different colloids, draws the colloids close together and causes the color of the gold colloid solution to change from pink to blue. Recall that colloidal gold appears pink when the particles are dispersed in a homogeneous solution, but the solution turns blue when the particles are aggregated, see FIG. 5. Drug candidates are added to the colloid-immobilized GRGDS motif peptides and endostatin solution. When a drug candidate effectively interrupts the endostatin—GRGDS motif peptide interaction, the solution remains pink. Recall that the drug candidates are monomeric and therefore, even if they bind to the GRGDS peptides, they cannot bring two colloids together, which would cause the solution color to change from the inherent pink, to blue, see FIG. 7.
60 uM NTA colloids presenting a His-tagged peptide containing […] RGD motifs (GRGDSGRGDS) were prepared by incubating 1 mL of colloids with 200 ul 100 uM His-RGD for ten minutes, pelleting the colloids to remove excess unbound peptide, and resuspending the colloids in PBS. Negative control colloids were prepared by substituting a random His-tagged peptide in place of the RGD peptide. 30 μL RGD-colloids (or random peptide-colloids for negative controls) were added to each well of a 96-well plate along with 60 ul PBS per well. 5 μL of a candidate drug at 2.9 mg/ml in DMSO was added to each well of the plate. Candidate drugs including L-histidine, D-cycloserine, quisqualic acid and suramin were assessed. (See FIGS. 1-4). DMSO was added in place of a drug to each of the positive and negative controls. 4.75 ul of 0.1 mg/mL endostatin was added to each well. The plate was incubated at room temperature and observed for color change. After about 20 minutes, the positive controls changed color from pink to blue as the endostatin bound to the RGD peptide. […] Drugs identified in this manner that bound to the RGD motif and inhibited binding of endostatin may be endostatin mimics and could be used as synthetic replacements of endostatin.

[4] = biological target: T1, endostatin—GRGDS interaction (Homo sapiens, UniProt P39060); assay: Vitronectin competition in gold colloid colour-change assay (Example 6)
T1 construct: purchased Calbiochem 324746
T1 sequence (P39060 1572-1754 limits assumed): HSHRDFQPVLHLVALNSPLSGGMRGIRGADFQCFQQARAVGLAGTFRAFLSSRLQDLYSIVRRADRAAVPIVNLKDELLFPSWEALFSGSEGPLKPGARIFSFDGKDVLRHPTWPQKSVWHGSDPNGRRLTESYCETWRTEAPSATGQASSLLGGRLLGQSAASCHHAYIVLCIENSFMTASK
Method: 40 μM NTA gold colloids were prepared which presented the His-tagged RGD peptide (Sequence ID No.1, see Table 1). These colloids were mixed with endostatin (0.1 mg /mL) and turned blue, indicating binding of endostatin to the GRGDS peptide (A1, A2, FIG. 6). Control colloids presenting an irrelevant FLR-peptide (Sequence ID #2, see table 1) remained pink (wells A3, A4). At the highest concentration of vitronectin (0.1 mg /ml), the endostatin—GRGDS interaction is disrupted, and the well remains pink (B1). At lower concentrations of vitronectin, the endostatin—GRDS interaction is not affected and the wells turn blue (B2-B5).

## streptavidin: Streptavidin which has four binding sites for biotin, added free in solution
[1]
  colour of NTA-only control colloids: remained pink
[2]; lower concentrations of streptavidin, wells A4-A7
  colour of biotin colloids: remained pink
[2]; three highest concentrations of streptavidin (0.1 mg/mL, 0.01 mg/mL, 0.001 mg/mL), wells A1-A3
  colour of biotin colloids: turned blue

## N[C@@H]1CONC1=O [D-cycloserine]
[3]
  disruption of RGD-endostatin interaction (well remains pink): disrupted the RGD-endostatin interaction

## vitronectin: full-length vitronectin, a cell adhesion molecule containing the GRGDS motif
[4]; highest concentration of vitronectin (0.1 mg/ml), well B1
  effect on endostatin—GRGDS interaction: disrupted
[4]; lower concentrations of vitronectin, wells B2-B5
  effect on endostatin—GRGDS interaction: not affected

## N[C@@H](Cn1oc(=O)[nH]c1=O)C(=O)O [quisqualic acid]
[3]
  disruption of RGD-endostatin interaction (well remains pink): disrupted the RGD-endostatin interaction

## Cc1ccc(C(=O)Nc2ccc(S(=O)(=O)O)c3cc(S(=O)(=O)O)cc(S(=O)(=O)O)c23)cc1NC(=O)c1cccc(NC(=O)Nc2cccc(C(=O)Nc3cc(C(=O)Nc4ccc(S(=O)(=O)O)c5cc(S(=O)(=O)O)cc(S(=O)(=O)O)c45)ccc3C)c2)c1 [suramin]
[3]
  disruption of RGD-endostatin interaction (well remains pink): disrupted the RGD-endostatin interaction

## N[C@@H](Cc1c[nH]cn1)C(=O)O [L-histidine]
[3]
  disruption of RGD-endostatin interaction (well remains pink): disrupted the RGD-endostatin interaction
